# Experimental data: US20240083874A1, “TARGETING PLECKSTRIN-2 FOR TREATING CANCER AND OTHER DISEASES AND DISORDERS” (Northwestern University, priority 2021, published 2024)
# “Also recorded” adds a separate entry of the source.
# Test system: mouse fetal liver erythroblasts
# Experiment: mouse fetal liver erythroblast proliferation in erythropoietin containing medium
# Assay type: cell-based
# Conditions: approximately 10 uM NUP-52A added to the culture; proliferation monitored daily for two days; comparable to JAK2 inhibitor Ruxolitinib (FIG. 4)
# Description: FIG. 4. Effect of NUP-52A on cell proliferation, differentiation, and enucleation in comparison to ruxolitinib. Ter119 negative mouse fetal liver erythroblasts were purified and cultured in erythropoietin containing medium. NUP-52A (Panels A, B, and C) or Ruxolitinib (Panels D, E, and F) with indicated concentrations were added to the culture media at the start of culture. The cells were cultured for two days. Cell proliferation, differentiation, and enucleation were analyzed using flow cytometry on day 2.
# To screen these compounds, an assay using a well-developed Plek2 functional screening system (28) was performed. In this system, mouse fetal liver erythroid progenitors are purified and cultured in erythropoietin containing medium. These cells undergo rapid proliferation closely mimicking accelerated erythropoiesis in MPNs. In these cells, Plek2 is also highly expressed during the culture. This system then may be utilized to test Plek2 inhibitor compounds.
# We used mouse fetal liver erythroblasts to test the compound. Approximately 10 uM NUP-52A was added in the fetal liver erythroblast culture and the proliferation of the cells is monitored daily for two days. […] (See FIG. 4).
structure (smiles),measurement,value
"Clc1ccc2c(N3CCNCC3)cc(-c3c[nH]c4ccccc34)nc2c1 [NUP-52A, 7-chloro-4-(piperazin-1-yl)-2-(1H-indol-3-yl)quinoline]",effect on the proliferation of erythroblasts,potent effects; also recorded: strong inhibitory effects
